What was measured:
Assay in all cases: biochemical
Assay type in all cases: biochemical
Conditions in all cases: 15 nM tritium labelled cAMP, 1 hr at room temperature
[1] = target: PDE1A (Homo sapiens (Human), UniProt P54750)
Text: (§1) Table 1 lists the IC50 value for inhibition of PDE1 by the compounds of the invention. […] PDE1 assays are described in the Experimental Section.

[2] = target: PDE1C (Homo sapiens (Human), UniProt Q14123)
Text: as §1

[3] = target: PDE1B (Homo sapiens (Human), UniProt Q01064)
Text: as §1

PDE1A, sequence (P54750 whole entry): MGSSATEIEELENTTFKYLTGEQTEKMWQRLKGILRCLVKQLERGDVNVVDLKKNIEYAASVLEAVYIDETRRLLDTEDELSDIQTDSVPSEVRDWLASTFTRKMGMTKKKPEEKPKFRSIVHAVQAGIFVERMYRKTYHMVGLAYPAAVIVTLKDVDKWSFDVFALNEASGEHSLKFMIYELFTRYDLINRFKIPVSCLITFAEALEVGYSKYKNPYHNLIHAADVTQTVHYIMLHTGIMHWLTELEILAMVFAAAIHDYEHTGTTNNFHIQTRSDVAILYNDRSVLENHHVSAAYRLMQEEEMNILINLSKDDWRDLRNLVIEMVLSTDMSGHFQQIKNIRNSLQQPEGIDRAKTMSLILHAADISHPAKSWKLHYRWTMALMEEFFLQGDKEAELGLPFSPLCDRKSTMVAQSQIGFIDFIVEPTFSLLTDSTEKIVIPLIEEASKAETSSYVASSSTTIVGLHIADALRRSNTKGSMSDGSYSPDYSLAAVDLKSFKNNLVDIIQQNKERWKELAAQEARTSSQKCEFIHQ
PDE1B, sequence (Q01064 whole entry): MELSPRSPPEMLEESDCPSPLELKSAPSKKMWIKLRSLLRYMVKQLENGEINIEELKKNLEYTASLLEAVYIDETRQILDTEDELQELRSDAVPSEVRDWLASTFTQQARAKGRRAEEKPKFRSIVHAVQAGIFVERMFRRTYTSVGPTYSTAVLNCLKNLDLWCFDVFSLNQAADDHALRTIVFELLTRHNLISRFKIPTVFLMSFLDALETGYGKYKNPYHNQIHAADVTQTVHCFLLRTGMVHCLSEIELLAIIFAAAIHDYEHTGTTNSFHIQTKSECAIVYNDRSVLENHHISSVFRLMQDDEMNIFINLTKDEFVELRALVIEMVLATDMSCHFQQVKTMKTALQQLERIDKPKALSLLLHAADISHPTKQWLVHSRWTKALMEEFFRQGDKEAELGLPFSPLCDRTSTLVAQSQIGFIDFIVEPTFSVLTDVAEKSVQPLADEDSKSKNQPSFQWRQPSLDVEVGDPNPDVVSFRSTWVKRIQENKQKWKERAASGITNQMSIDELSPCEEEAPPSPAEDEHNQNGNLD
PDE1C, sequence (Q14123 whole entry): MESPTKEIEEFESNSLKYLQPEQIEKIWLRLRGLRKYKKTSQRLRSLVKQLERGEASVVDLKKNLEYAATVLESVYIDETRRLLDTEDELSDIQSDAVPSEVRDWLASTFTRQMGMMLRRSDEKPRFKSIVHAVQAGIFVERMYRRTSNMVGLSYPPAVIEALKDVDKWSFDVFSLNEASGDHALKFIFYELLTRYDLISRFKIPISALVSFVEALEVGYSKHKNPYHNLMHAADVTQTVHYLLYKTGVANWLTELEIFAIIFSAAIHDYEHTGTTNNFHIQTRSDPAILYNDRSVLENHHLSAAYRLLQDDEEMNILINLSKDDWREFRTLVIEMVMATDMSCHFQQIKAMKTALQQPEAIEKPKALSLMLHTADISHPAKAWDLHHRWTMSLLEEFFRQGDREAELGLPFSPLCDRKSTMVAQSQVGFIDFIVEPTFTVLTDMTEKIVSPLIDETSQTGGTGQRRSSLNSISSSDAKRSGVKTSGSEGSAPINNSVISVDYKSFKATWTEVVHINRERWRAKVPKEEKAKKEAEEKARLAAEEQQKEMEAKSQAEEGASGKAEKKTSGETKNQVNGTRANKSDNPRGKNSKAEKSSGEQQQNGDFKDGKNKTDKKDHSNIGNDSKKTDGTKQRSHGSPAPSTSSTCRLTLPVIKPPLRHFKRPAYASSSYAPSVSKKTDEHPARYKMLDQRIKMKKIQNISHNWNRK

Structure (SMILES) | IC50 [1] [µM] | IC50 [2] [µM] | IC50 [3] [µM]
Cc1nn(C(C)C)c2c(NCc3cnn(C)c3)cc(-c3cccc4cc[nH]c34)nc12 [Example 38b, 5-(1H-indol-7-yl)-1-isopropyl-3-methyl-N-[(1-methylpyrazol-4-yl)methyl]pyrazolo[4,3-b]pyridin-7-amine] | 0.59 | 0.35 | 0.1
Cc1nn(C(C)C)c2c(NCc3cnn(C)c3)cc(-c3cccc4cn[nH]c34)nc12 [Example 39b, 5-(1H-indazol-7-yl)-1-isopropyl-3-methyl-N-[(1-methylpyrazol-4-yl)methyl]pyrazolo[4,3-b]pyridin-7-amine] | 0.14 | 0.3 | 0.024
